According to US11505536B2, “Dihydroorotate dehydrogenase inhibitors” (Janssen Biotech, Inc., priority 2019, dated 2022):

Columns and labels:
human DHODH = human DHODH (Homo sapiens (Human), UniProt Q02127); test: DHODH Enzymatic Assay; type: biochemical; details: purified human DHODH, DCIP absorbance, end-point mode; read-out: hDHODH IC50
Method in brief: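 Purified human DHODH in […] HEPES pH 7.5, 150 mM NaCl, 0.5 mM EDTA, 0.1% Triton X-100; reaction started with substrate mix of 20 mM DHO, 5 mM CoQ6, 1 mM DCIP. End-point read as DCIP reduction (absorbance ~600 nm) after brequinar quench.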

[1] = tested on: MOLM-13 cells (human acute myeloid leukemia cells); test: MOLM-13 Cellular Assay; type: cell-based; details: Homo sapiens, MOLM-13, 72 h, 72 hours exposure, cell viability by CellTiter-Glo
Method in brief: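 MOLM-13 AML cells, seeded at 5,000/well in RPMI 1640 with 10% FBS, were treated with compounds right after seeding for 72 h at 37 °C, 5% CO2. Viability read by CellTiter-Glo luminescence.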

Sequence of human DHODH (Q02127 whole entry): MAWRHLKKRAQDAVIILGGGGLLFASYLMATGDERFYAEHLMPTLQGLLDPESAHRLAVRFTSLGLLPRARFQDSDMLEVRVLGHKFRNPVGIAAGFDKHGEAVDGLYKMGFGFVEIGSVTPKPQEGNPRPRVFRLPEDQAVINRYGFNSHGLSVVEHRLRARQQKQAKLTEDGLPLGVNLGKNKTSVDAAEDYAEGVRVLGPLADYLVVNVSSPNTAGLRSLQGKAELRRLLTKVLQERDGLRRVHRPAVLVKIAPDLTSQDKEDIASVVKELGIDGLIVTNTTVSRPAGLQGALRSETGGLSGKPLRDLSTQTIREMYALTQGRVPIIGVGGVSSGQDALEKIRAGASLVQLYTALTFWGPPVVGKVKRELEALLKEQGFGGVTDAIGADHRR

| IC50 (human DHODH) [nM] | IC50 [1] [nM] | Structure (SMILES) |
| --- | --- | --- |
| 0.435 | 0.7 | CCn1c(CO)nn(-c2cc3c(C(C)C)cn(-c4c(C)cccc4F)c(=O)c3cc2F)c1=O [Example 69, 6-(4-Ethyl-3-(hydroxymethyl)-5-oxo-4,5-dihydro-1H-1,2,4-triazol-1-yl)-7-fluoro-2-(2-fluoro-6-methylphenyl)-4-isopropylisoquinolin-1(2H)-one] |
| 10.5 | > 100 | CCn1c(CO)nn(-c2cc3c(C(C)C)cn(-c4ccnc(O)c4C)c(=O)c3cc2F)c1=O [Example 141, 6-(4-Ethyl-3-(hydroxymethyl)-5-oxo-4,5-dihydro-1H-1,2,4-triazol-1-yl)-7-fluoro-2-(2-hydroxy-3-methylpyridin-4-yl)-4-isopropylisoquinolin-1(2H)-one] |
| 35.3 | 30 | CCn1c(CO)nn(-c2cc3c(C(C)C)cn(C(COC)COC)c(=O)c3cc2F)c1=O [Example 112, 2-(1,3-Dimethoxypropan-2-yl)-6-(4-ethyl-3-(hydroxymethyl)-5-oxo-4,5-dihydro-1H-1,2,4-triazol-1-yl)-7-fluoro-4-isopropylisoquinolin-1(2H)-one] |
| 181 | > 100 | CCn1c(CO)nn(-c2cc3c(C(C)C)cn([C@H]4CCC[C@@H](OC)C4)c(=O)c3cc2F)c1=O (racemic) [Example 127, Racemic 6-(4-Ethyl-3-(hydroxymethyl)-5-oxo-4,5-dihydro-1H-1,2,4-triazol-1-yl)-7-fluoro-4-isopropyl-2-((cis)-3-methoxycyclohexyl)isoquinolin-1(2H)-one] |
| 6.05 | 30 | CCn1c(CO)nn(-c2cc3c(C(C)C)cn(-c4cc(OC)ncc4F)c(=O)c3cc2F)c1=O [Example 91, 6-(4-Ethyl-3-(hydroxymethyl)-5-oxo-4,5-dihydro-1H-1,2,4-triazol-1-yl)-7-fluoro-2-(5-fluoro-2-methoxypyridin-4-yl)-4-isopropylisoquinolin-1(2H)-one] |
| 13.4 | 10 | CCC(CC)n1cc(C(C)C)c2cc(-n3nc(CO)n(CC)c3=O)c(F)cc2c1=O [Example 122, 6-(4-Ethyl-3-(hydroxymethyl)-5-oxo-4,5-dihydro-1H-1,2,4-triazol-1-yl)-7-fluoro-4-isopropyl-2-(pentan-3-yl)isoquinolin-1(2H)-one] |
| 2.24 | 7 | CCn1c(CO)nn(-c2cc3c(C(C)C)cn(-c4cccc(F)c4C)c(=O)c3cc2F)c1=O [Example 74, 6-(4-Ethyl-3-(hydroxymethyl)-5-oxo-4,5-dihydro-1H-1,2,4-triazol-1-yl)-7-fluoro-2-(3-fluoro-2-methylphenyl)-4-isopropylisoquinolin-1(2H)-one] |
| 3.72 | 4 | CCn1c(CO)nn(-c2cc3c(C(C)C)cn(-c4cnsc4C)c(=O)c3cc2F)c1=O [Example 132, 6-(4-Ethyl-3-(hydroxymethyl)-5-oxo-4,5-dihydro-1H-1,2,4-triazol-1-yl)-7-fluoro-4-isopropyl-2-(5-methylisothiazol-4-yl)isoquinolin-1(2H)-one] |
| 2.1 | 3 | CCn1c(CO)nn(-c2cc3c(C(C)C)cn(-c4cc(OC)ncc4C)c(=O)c3cc2F)c1=O [Example 113, 6-(4-Ethyl-3-(hydroxymethyl)-5-oxo-4,5-dihydro-1H-1,2,4-triazol-1-yl)-7-fluoro-4-isopropyl-2-(2-methoxy-5-methylpyridin-4-yl)isoquinolin-1(2H)-one] |
| 2.07 | 6 | CCn1c(CO)nn(-c2cc3c(C(C)C)cn(C4CCCCC4)c(=O)c3cc2F)c1=O [Example 107, 2-Cyclohexyl-6-(4-ethyl-3-(hydroxymethyl)-5-oxo-4,5-dihydro-1H-1,2,4-triazol-1-yl)-7-fluoro-4-isopropylisoquinolin-1(2H)-one] |
| 1.86 | 3 | CCn1c(CO)nn(-c2cc3c(C(C)C)cn(-c4ccccc4F)c(=O)c3cc2F)c1=O [Example 77, 6-(4-Ethyl-3-(hydroxymethyl)-5-oxo-4,5-dihydro-1H-1,2,4-triazol-1-yl)-7-fluoro-2-(2-fluorophenyl)-4-isopropylisoquinolin-1(2H)-one] |

The remaining lines, values behind:

| Structure (SMILES) | IC50 (human DHODH) [nM] | IC50 [1] [nM] |
| --- | --- | --- |
| CCC(C)c1cn(-c2c(F)cccc2Cl)c(=O)c2cc(F)c(-n3nc(CO)n(CC)c3=O)cc12 (racemic) [Example 48, Racemic-4-(sec-Butyl)-2-(2-chloro-6-fluorophenyl)-6-(4-ethyl-3-(hydroxymethyl)-5-oxo-4,5-dihydro-1H-1,2,4-triazol-1-yl)-7-fluoroisoquinolin-1(2H)-one] | 0.907 | 0.6 |
| C=C(C)c1cn(-c2cc(C)ccc2F)c(=O)c2cc(F)c(-n3nc(CO)n(CC)c3=O)cc12 [Example 42, 6-(4-Ethyl-3-(hydroxymethyl)-5-oxo-4,5-dihydro-1H-1,2,4-triazol-1-yl)-7-fluoro-2-(2-fluoro-5-methylphenyl)-4-(prop-1-en-2-yl)isoquinolin-1(2H)-one] | 1.69 | 0.9 |
| CCn1c(CO)nn(-c2cc3c([C@H](C)C(F)(F)F)nn(-c4ccccc4C)c(=O)c3cc2F)c1=O (single isomer, unassigned) [Example 56, (S*)-6-(4-Ethyl-3-(hydroxymethyl)-5-oxo-4,5-dihydro-1H-1,2,4-triazol-1-yl)-7-fluoro-2-(o-tolyl)-4-(1,1,1-trifluoropropan-2-yl)phthalazin-1(2H)-one] | 2.31 | 2 |
| C=C(C)c1cn(-c2c(F)cccc2Cl)c(=O)c2cc(F)c(-n3nc(CO)n(CC)c3=O)nc12 [Example 35, 6-(2-Chloro-6-fluorophenyl)-2-(4-ethyl-3-(hydroxymethyl)-5-oxo-4,5-dihydro-1H-1,2,4-triazol-1-yl)-3-fluoro-8-(prop-1-en-2-yl)-1,6-naphthyridin-5(6H)-one] | 1.15 | 1 |
| CCn1c(CO)nn(-c2ccc3c(=O)n(-c4c(F)cccc4Cl)nc(C(C)C)c3c2)c1=O [Example 19, 2-(2-Chloro-6-fluorophenyl)-6-(4-ethyl-3-(hydroxymethyl)-5-oxo-4,5-dihydro-1H-1,2,4-triazol-1-yl)-4-isopropylphthalazin-1(2H)-one] | 4.96 | 4 |
| C=C(C)c1cn(-c2cc(C)cnc2Cl)c(=O)c2cc(F)c(-n3nc(CO)n(CC)c3=O)cc12 [Example 84, 2-(2-Chloro-5-methylpyridin-3-yl)-6-(4-ethyl-3-(hydroxymethyl)-5-oxo-4,5-dihydro-1H-1,2,4-triazol-1-yl)-7-fluoro-4-(prop-1-en-2-yl)isoquinolin-1(2H)-one] | 6.58 | 70 |
| CCn1c(CO)nn(-c2cc3c([C@@H](C)C(F)(F)F)cn(-c4ccccc4C)c(=O)c3cc2F)c1=O [Example 102, (R)-6-(4-Ethyl-3-(hydroxymethyl)-5-oxo-4,5-dihydro-1H-1,2,4-triazol-1-yl)-7-fluoro-2-(o-tolyl)-4-(1,1,1-trifluoropropan-2-yl)isoquinolin-1(2H)-one] | 0.26 | 0.3 |
| C=C(C)c1cn(-c2cc(OC)ccc2Cl)c(=O)c2cc(F)c(-n3nc(CO)n(CC)c3=O)cc12 [Example 47, 2-(2-Chloro-5-methoxyphenyl)-6-(4-ethyl-3-(hydroxymethyl)-5-oxo-4,5-dihydro-1H-1,2,4-triazol-1-yl)-7-fluoro-4-(prop-1-en-2-yl)isoquinolin-1(2H)-one] | 1.21 | 0.7 |
